Laboratory results from patent US6410578B1, “Benzazole compounds and their use” (Novartis Animal Health US, Inc., priority 1998, dated 2002).

How the values were obtained:
[1] = test system: Rhipicephalus sanguineus (nymphs); assay: Arena test for vermin-repellent substances, Example C; conditions: in vitro arena test, ca. 40 to 50 nymphs; for duration of repellent/deterrent action compared with DEET: DEET as standard; for repellent/deterrent action: evaluation of video images
Description: (§1) This method is carried out in titre plates having 6 wells with a cross-section of 5 cm each, using a computer-supported video system. Each well of the titre plate is lined with a circular filter paper or another suitable carrier material. The substance of formula I to be tested is dissolved in methanol, acetonitrile or another suitable solvent, with ultrasound treatment and heating being employed for poorly-soluble substances. In an amount of 1 to 100 mg/cm^2, the dissolved test substance is placed in the centre of the filter paper on a quadrant or circular area of ca. 2.4 cm^2 radius. 4 of the 6 wells are filled with different test substances or with the same test substance in different dilutions (e.g. 1, 3.2, 5, 10 and 20 mg/cm^2). The 5th well is treated with DEET (N,N-diethyl-m-toluamide) as standard substance. The 6th well is filled with the pure solvent and serves as a control. 60 to 100 larvae or 25 to 50 nymphs or 10 to 25 adults of the parasite to be tested, e.g. ticks, are added to each filter paper, and the system is covered with a pane of glass and positioned under a video camera.
(§2) At intervals of 5 seconds, the video camera takes individual pictures of all 6 wells. For a qualitative evaluation, these images are observed in a time-lapse as a continuous film, optically following the movements of the parasites on the filter paper and comparing them with the movements in the control well no. 6 or with the standard in the 5th well. A qualitative observation is thus made as to whether the test parasites move evenly over the whole surface of the filter paper and ignore the test substance, or whether and over what period they avoid the treated zone, and what influence the dilution of the test substance has on the behaviour of the test parasites. In this way, neutral and repellent substances are determined. At the same time, the duration of activity of the test substance is determined and compared with that of the standard. By plotting all the images for each individual well over one another, different areas of density are obtained. This represents the frequency at which the parasites visit certain places. This frequency is evaluated statistically and thus quantitatively by the Willcoxon method in a comparison with the control and with the standard.
In vitro Test; Test Animal: Rhipicephalus sanguineus (Nymphs)
The test is carried out analogously to example B, with ca. 40 to 50 nymphs.

[2] = test system: Amblyomma hebraeum or variegatum (nymphs); assay: Arena test for vermin-repellent substances, Example B; conditions: in vitro arena test, ca. 25 nymphs per well; for duration of repellent/deterrent action compared with DEET: DEET as standard; for repellent/deterrent action: evaluation of video images
Description: as §1, §2
In vitro Test; Test Animal: Amblyomma hebraeum or variegatum (Nymphs)
The test is carried out as described above, with ca. 25 nymphs being added per well.

[3] = test system: Boophilus microplus Biarra (larvae); assay: Arena test for vermin-repellent substances, Example A; conditions: in vitro arena test, ca. 60 to 100 larvae per well; for duration of repellent/deterrent action compared with DEET: DEET as standard; for repellent/deterrent action: evaluation of video images
Description: as §1, §2
In vitro Test; Test Animal: Boophilus microplus Biarra (Larvae)
The test is carried out as described above, with ca. 60 to 100 larvae being added per well.

With `Cc1nc2cc(N)ccc2s1` [5-amino-2-methylbenzothiazole] the “duration of repellent/deterrent action compared with DEET” value [1] was “lasts considerably longer than that of DEET”, the repellent/deterrent action [1] was “almost complete repellent/deterrent action” and the “duration of repellent/deterrent action compared with DEET” value [2] was “lasts considerably longer than that of DEET”. For the same compound, the repellent/deterrent action [2] was “almost complete repellent/deterrent action”, the “duration of repellent/deterrent action compared with DEET” value [3] was “lasts considerably longer than that of DEET” and the repellent/deterrent action [3] was “almost complete repellent/deterrent action”.

For `COc1cc2nc(C)sc2cc1OC` [5,6-dimethoxy-2-methylbenzothiazole], the “duration of repellent/deterrent action compared with DEET” value [1] was “lasts considerably longer than that of DEET”, the repellent/deterrent action [1] was “almost complete repellent/deterrent action” and the “duration of repellent/deterrent action compared with DEET” value [2] was “lasts considerably longer than that of DEET”. For the same compound, the repellent/deterrent action [2] was “almost complete repellent/deterrent action”, the “duration of repellent/deterrent action compared with DEET” value [3] was “lasts considerably longer than that of DEET” and the repellent/deterrent action [3] was “almost complete repellent/deterrent action”.
